Test results reported in patent US7541472B2 (priority 2004, dated 2009).
pIC50: −log10 of the molar value.

Legend:
Test in all cases: microbe, parasite or virus in culture
Assay type in all cases: cell-based
[1] = test system: Botrytis cinerea; settings: read-out: IC50 B. cinerea
[2] = test system: Phytophthora infestans; settings: for IC50 P. infestans: fungal growth on 1.5% agar minimal media, 20° C., 3-5 days, 3-fold serial dilutions, C.V. class in parentheses; for pIC50: Phytophthora infestans, read-out: IC50 P. infestans
[3] = test system: Stagonospora nodorum; settings: for pIC50: Parastagonospora nodorum, read-out: IC50 S. nodorum
[4] = test system: Septoria tritici; settings: for pIC50: Zymoseptoria tritici, read-out: IC50 S. tritici

| SMILES | pIC50 [1] | IC50 P. infestans [2] | IC50 S. nodorum [3] | IC50 S. tritici [4] | pIC50 [2] | pIC50 [3] | pIC50 [4] |
| --- | --- | --- | --- | --- | --- | --- | --- |
| C=C(C(=O)OCc1ccc(Cl)c(Cl)c1)C(O)c1nccs1 (stereo not drawn) [Compound 4, 3,4-Dichlorophenylmethyl β-hydroxy-α-methylene-2-thiazolepropanoate] | > 5.30 | B (d) | C (b) | B (b) |  |  |  |
| O=C(OCc1cccc(C(F)(F)F)c1)/C(=C\c1ccccc1)C(O)c1cccnc1 (stereo not drawn) [Compound 5, 3-(Trifluoromethyl)phenylmethyl Z-α-(α-hydroxy-3-pyridylmethyl)-3-phenylpropenoate] | < 4.60 |  | A (b) | A (b) | < 4.60 |  |  |
| C=C(C(=O)Oc1ccc(Cl)cc1)C(O)c1cccnc1 (stereo not drawn) [Compound 19, 4-Chlorophenyl β-hydroxy-α-methylene-3-pyridinepropanoate] | < 4.60 | A (c) | C (c) | A (c) |  |  |  |
| C=C(C(=O)OCc1ccc(Oc2cccc(Cl)c2)cc1)C(O)c1cccnc1 (stereo not drawn) [Compound 24, 4-(3-Chlorophenoxy)phenylmethyl β-hydroxy-α-methylene-3-pyridinepropanoate] | < 4.60 |  | C (c) | A (d) | 4.60 to 4.80 |  |  |
| C=C(C(=O)OCc1ccc(Oc2ccccc2)cc1)C(O)c1cccnc1 (stereo not drawn) [Compound 28, 4-Phenoxyphenylmethyl β-hydroxy-α-methylene-3-pyridinepropanoate] |  | B (a) |  |  |  | 4.82 to 5.22 | > 5.30 |
| C=C(C(=O)OCc1ccc(Oc2ccccc2)cc1)C(O)c1nccs1 (stereo not drawn) [Compound 30, 4-Phenoxyphenylmethyl β-hydroxy-α-methylene-2-thiazolepropanoate] | 4.60 to 4.80 | A (b) |  |  |  | < 4.60 | 4.82 to 5.22 |
